# The supplement of paper PMC10307832
# What was measured:
# Experiment in all cases: relative viability (nuclei count vs DMSO), 5 days (fraction); higher = more cells survive
# [1] = compound: C(C(=O)C(=O)O)Br [Bromopyruvate] + C[C@]1(O)C[C@@H](c2nc(-c3ccc4ccc(-c5ccccc5)nc4c3)c3c(N)nccn32)C1 [Linsitinib] (partner 1 µM)
# In short: (§1)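 Relative viability is defined as nuclei in treated wells over nuclei in vehicle wells. Duplicate plates were run and medians reported. Lung cancer cell lines in 1536-well plates were dosed by pin tool one day after seeding, with one drug or with a fixed anchor-drug dose plus five library-drug doses (not always all listed) in √10 steps, and nuclei were counted after 5 days.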
# [2] = compound: C(C(=O)C(=O)O)Br [Bromopyruvate] + COc1cc2c(Oc3ccc(NC(=O)C4(C(=O)Nc5ccc(F)cc5)CC4)cc3F)ccnc2cc1OCCCN1CCOCC1 [Foretinib] (partner 0.25 µM)
# In short: as §1
# [3] = compound: CC(O)(CS(=O)(=O)c1ccc(F)cc1)C(=O)Nc1ccc(C#N)c(C(F)(F)F)c1 [Bicalutamide] + CS(=O)(=O)N1CCN(Cc2cc3nc(-c4cccc5[nH]ncc45)nc(N4CCOCC4)c3s2)CC1 [Pictilisib] (partner 1 µM)
# In short: as §1
# [4] = compound: C(C(=O)C(=O)O)Br [Bromopyruvate] + C[C@@H](Oc1cc(-c2cnn(C3CCNCC3)c2)cnc1N)c1c(Cl)ccc(F)c1Cl [Crizotinib] (partner 1 µM)
# In short: as §1
Cell Line,relative viability ([1]; first compound 1 µM),relative viability ([1]; first compound 3.162 µM),relative viability ([1]; first compound 10 µM),relative viability ([1]; first compound 31.62 µM),relative viability ([1]; first compound 100 µM),relative viability ([2]; first compound 1 µM),relative viability ([2]; first compound 3.162 µM),relative viability ([2]; first compound 10 µM),relative viability ([2]; first compound 31.62 µM),relative viability ([2]; first compound 100 µM),relative viability ([3]; first compound 0.08 µM),relative viability ([3]; first compound 0.8 µM),relative viability ([3]; first compound 2.53 µM),relative viability ([4]; first compound 1 µM),relative viability ([4]; first compound 3.162 µM),relative viability ([4]; first compound 10 µM),relative viability ([4]; first compound 31.62 µM),relative viability ([4]; first compound 100 µM),relative viability ([3]; first compound 0.253 µM)
NCI-H441,0.533,0.656,0.543,0.507,0.518,1.08,1.02,0.986,0.984,0.947,0.594,0.513,0.426,0.884,0.739,0.661,0.82,0.337,–
PC-14,1.03,1.01,0.938,0.944,1.04,0.945,0.939,1.02,0.848,0.981,0.894,0.707,0.659,0.991,0.868,0.826,0.966,0.997,0.652
HARA,0.978,1.01,1.01,0.932,1.02,0.91,0.868,0.984,0.824,0.93,0.462,0.566,0.316,1.05,1.03,0.983,0.991,1.06,0.413
NCI-H2126,0.718,0.693,0.697,0.701,0.753,1.17,1.39,1.2,1.26,1.31,0.494,0.511,0.43,1.02,1.07,1.04,0.99,0.988,0.468
NCI-H2342,–,–,–,–,–,1.09,1.18,1.01,0.853,1.04,–,–,–,–,–,–,–,–,–
NCI-H1792,0.538,0.533,0.718,0.522,0.456,–,–,–,–,–,0.299,0.284,0.245,1.11,1.03,1.09,0.878,0.984,0.224
ChaGo-K-1,–,–,–,–,–,0.898,0.937,1.15,1.02,0.998,0.818,0.892,0.523,1.09,1.14,1.17,1.1,1.17,0.606
HCC-44,0.612,0.662,0.729,0.753,0.713,–,–,–,–,–,0.702,0.727,0.479,0.787,0.724,0.735,0.862,0.884,0.534
NCI-H1793,0.706,0.8,1.16,0.844,1.06,0.718,0.821,0.833,0.736,0.684,0.285,0.415,0.281,–,–,–,–,–,0.208
NCI-H1395,1.36,1.29,1.09,1.2,1.17,0.975,0.838,1.14,1.03,1.01,0.596,0.687,0.456,–,–,–,–,–,0.519
SW 900,–,–,–,–,–,0.902,0.955,0.665,0.84,0.898,–,–,–,–,–,–,–,–,–
